In patent US8673908B2, “Kynurenine production inhibitor” (Kyowa Hakko Kirin Co., Ltd., priority 2008, dated 2014):

Test system: kynurenine production in IFN-γ-treated KATO-III cells
Assay: Inhibitory activity on kynurenine production (Test Example 1)
Assay type: cell-based
Conditions: Homo sapiens, IFN-γ treatment, culture for 96 hours, read-out: IC50 value, inhibition of kynurenine production
In short: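 Read-out is absorbance at 480 nm of medium treated with trichloroacetic acid, then p-dimethylaminobenzaldehyde, to quantify kynurenine. DMSO-only wells with and without IFN-γ serve as references. Cells were KATO-III, 2,000 per well, 96 h at 37 °C/5% CO2 with compound (DMSO ≤0.1%) and IFN-γ at 31.25 ng/mL in the added suspension.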

| IC50 | Structure (SMILES) |
| --- | --- |
| < 1000 nM | Cc1noc(C)c1S(=O)(=O)Nc1nc2ccccc2nc1OC(c1cnc(Cl)s1)C(F)(F)F (stereo not shown) [Compound 198, N-{3-[1-(2-chlorothiazol-5-yl)-2,2,2-trifluoroethoxy]-quinoxalin-2-yl}-3,5-dimethylisoxazole-4-sulfonamide] |
| < 1000 nM | Cc1nn(C)c(Cl)c1S(=O)(=O)Nc1nc2ccccc2nc1OC(c1ccc(C#N)cc1)C(F)(F)F (stereo not shown) [Compound 200, 5-chloro-N-{3-[1-(4-cyanophenyl)-2,2,2-trifluoroethoxy]-quinoxalin-2-yl}-1,3-dimethyl-1H-pyrazole-4-sulfonamide] |
| < 1000 nM | Cc1noc(C)c1S(=O)(=O)Nc1nc2ccccc2nc1OC(c1ccc(C#N)cc1)C(F)(F)F (stereo not shown) [Compound 201, N-{3-[1-(4-cyanophenyl)-2,2,2-trifluoroethoxy]quinoxalin-2-yl}-3,5-dimethylisoxazole-4-sulfonamide] |
| < 1000 nM | CCCS(=O)(=O)Nc1nc2ccccc2nc1OC(c1ccc(C#N)cc1)C(F)(F)F (stereo not shown) [Compound 202, N-{3-[1-(4-cyanophenyl)-2,2,2-trifluoroethoxy]quinoxalin-2-yl}propane-1-sulfonamide] |
| < 1000 nM | Cc1nn(C)c(Cl)c1S(=O)(=O)Nc1nc2ccccc2nc1OC(c1ccc(CN(C)C)cc1)C(F)(F)F (stereo not shown) [Compound 203, 5-chloro-N-{3-[1-(4-((dimethylamino)methyl)phenyl)-2,2,2-trifluoroethoxy]quinoxalin-2-yl}-1,3-dimethyl-1H-pyrazole-4-sulfonamide] |
| < 1000 nM | Cc1noc(C)c1S(=O)(=O)Nc1nc2ccccc2nc1OC(c1ccc(CN(C)C)cc1)C(F)(F)F (stereo not shown) [Compound 204, N-{3-[1-(4-((dimethylamino)methyl)phenyl)-2,2,2-trifluoroethoxy]quinoxalin-2-yl}-3,5-dimethylisoxazole-4-sulfonamide] |
| < 1000 nM | COCCCNS(=O)(=O)Nc1nc2ccccc2nc1OC(c1cccnc1)C(F)(F)F (stereo not shown) [Compound 206, N-{3-[2,2,2-trifluoro-1-(pyridin-3-yl)ethoxy]quinoxalin-2-yl}-N′-(3-methoxypropyl)-sulfuric diamide] |
| < 1000 nM | CCOCCNS(=O)(=O)Nc1nc2ccccc2nc1OC(c1cccnc1)C(F)(F)F (stereo not shown) [Compound 207, N-{3-[2,2,2-trifluoro-1-(pyridin-3-yl)ethoxy]quinoxalin-2-yl}-N′-(2-ethoxyethyl)-sulfuric diamide] |
| < 1000 nM | CC(C)(C)OC(=O)NCCc1ccc(S(=O)(=O)Nc2nc3ccccc3nc2OC(c2cccnc2)C(F)(F)F)cc1 (stereo not shown) [Compound 208, tert-butyl 4-(N-{3-[2,2,2-trifluoro-1-(pyridin-3-yl)ethoxy]quinoxalin-2-yl}sulfamoyl)phenethylcarbamate] |
| < 1000 nM | CCCS(=O)(=O)Nc1nc2ccccc2nc1OC(c1cccnc1)C(C)C (stereo not shown) [Compound 210, N-{3-[2-methyl-1-(pyridin-3-yl)propoxy]quinoxalin-2-yl}-propane-1-sulfonamide] |
| < 1000 nM | CCCNS(=O)(=O)Nc1nc2ccccc2nc1OC(c1cccnc1)C(C)C (stereo not shown) [Compound 213, N-{3-[2-methyl-1-(pyridin-3-yl)propoxy]quinoxalin-2-yl}-N′-propyl-sulfuric diamide] |
| < 1000 nM | CCCNS(=O)(=O)Nc1nc2ccccc2nc1OC(c1ccc[n+]([O-])c1)C(C)C (stereo not shown) [Compound 214, 3-{2-methyl-1-[3-(N-propylsulfamoylamino)quinoxalin-2-yloxy]propyl}pyridine 1-oxide] |
| < 1000 nM | CCCS(=O)(=O)Nc1nc2ccccc2nc1OC(C1CCOCC1)C(F)(F)F (stereo not shown) [Compound 215, N-{3-[2,2,2-trifluoro-1-(tetrahydro-2H-pyran-4-yl)ethoxy]-quinoxalin-2-yl}propane-1-sulfonamide] |
| < 1000 nM | CCCNS(=O)(=O)Nc1nc2ccccc2nc1OC(C1CCOCC1)C(F)(F)F (stereo not shown) [Compound 216, N-propyl-N′-{3-[2,2,2-trifluoro-1-(tetrahydro-2H-pyran-4-yl)ethoxy]quinoxalin-2-yl}sulfuric diamide] |
| 1000 to 10000 nM | O=S(=O)(Nc1nc2ccccc2nc1SCc1ccccc1)c1ccccc1Cl [Compound 221, N-[3-(benzylthio)quinoxalin-2-yl]-2-chlorobenzenesulfonamide] |
| < 1000 nM | CC(Sc1nc2ccccc2nc1NS(=O)(=O)c1ccccc1Cl)c1ccccc1 (stereo not shown) [Compound 224, 2-chloro-N-[3-(1-phenylethylthio)quinoxalin-2-yl]benzenesulfonamide] |
| < 1000 nM | CC(C)C(Oc1nc2ccccc2nc1NS(=O)(=O)c1cccc(Cl)c1Cl)C(C)C [Compound 226, 2,3-dichloro-N-[3-(2,4-dimethylpentan-3-yloxy)quinoxalin-2-yl]benzenesulfonamide] |
| < 1000 nM | CC(CN1CCOCC1)Oc1nc2ccccc2nc1NS(=O)(=O)c1ccccc1Cl (stereo not shown) [Compound 230, 2-chloro-N-[3-(1-morpholinopropan-2-yloxy)quinoxalin-2-yl]-benzenesulfonamide] |
| 1000 to 10000 nM | CC(Oc1nc2ccccc2nc1NS(=O)(=O)c1ccccc1Cl)C(C)(C)C (stereo not shown) [Compound 231, 2-chloro-N-[3-(3,3-dimethylbutan-2-yloxy)quinoxalin-2-yl]-benzenesulfonamide] |

| IC50 | Structure (SMILES) |
| --- | --- |
| 1000 to 10000 nM | CCOCC(C)Oc1nc2ccccc2nc1NS(=O)(=O)c1ccccc1Cl (stereo not shown) [Compound 232, 2-chloro-N-[3-(1-ethoxypropan-2-yloxy)quinoxalin-2-yl]-benzenesulfonamide] |
| < 1000 nM | CCC(=O)C(CC)Oc1nc2ccccc2nc1NS(=O)(=O)c1ccccc1Cl (stereo not shown) [Compound 237, 2-chloro-N-[3-(4-oxohexan-3-yloxy)quinoxalin-2-yl]benzenesulfonamide] |
| < 1000 nM | O=S(=O)(Nc1nc2ccccc2nc1OC(c1cccnc1)c1cccnc1)c1ccccc1Cl [Compound 242, 2-chloro-N-[3-(dipyridin-3-ylmethoxy)quinoxalin-2-yl]-benzenesulfonamide] |
| < 1000 nM | O=S(=O)(Nc1nc2ccccc2nc1OC(c1cccnc1)c1cncs1)c1ccccc1Cl (stereo not shown) [Compound 243, 2-chloro-N-{3-[pyridin-3-yl(thiazol-5-yl)methoxy]-quinoxalin-2-yl}benzenesulfonamide] |
| < 1000 nM | CCC1(COc2nc3ccccc3nc2NS(=O)(=O)c2ccccc2Cl)CCOCC1 [Compound 245, 2-chloro-N-{3-[(4-ethyltetrahydro-2H-pyran-4-yl)methoxy]-quinoxalin-2-yl}benzenesulfonamide] |
| < 1000 nM | CC1(COc2nc3ccccc3nc2NS(=O)(=O)c2ccccc2Cl)CCOCC1 [Compound 246, 2-chloro-N-{3-[(4-methyltetrahydro-2H-pyran-4-yl)methoxy]-quinoxalin-2-yl}benzenesulfonamide] |
| 1000 to 10000 nM | COC1(COc2nc3ccccc3nc2NS(=O)(=O)c2ccccc2Cl)CCOCC1 [Compound 247, 2-chloro-N-{3-[(4-methoxytetrahydro-2H-pyran-4-yl)methoxy]-quinoxalin-2-yl}benzenesulfonamide] |
| 1000 to 10000 nM | N#CC1(COc2nc3ccccc3nc2NS(=O)(=O)c2ccccc2Cl)CCOCC1 [Compound 250, 2-chloro-N-{3-[(4-cyanotetrahydro-2H-pyran-4-yl)methoxy]-quinoxalin-2-yl}benzenesulfonamide] |
| 1000 to 10000 nM | CC1(COc2nc3ccccc3nc2NS(=O)(=O)c2ccccc2Cl)COCOC1 [Compound 251, 2-chloro-N-{3-[(5-methyl-1,3-dioxan-5-yl)methoxy]-quinoxalin-2-yl}benzenesulfonamide] |
| 1000 to 10000 nM | Cc1cc2nc(NS(=O)(=O)c3ccccc3Cl)c(OC(c3cccnc3)C(F)(F)F)nc2cc1C (stereo not shown) [Compound 260, 2-chloro-N-{6,7-dimethyl-3-[2,2,2-trifluoro-1-(pyridin-3-yl)ethoxy]quinoxalin-2-yl}benzenesulfonamide] |
| < 1000 nM | Cc1ccc2nc(NS(=O)(=O)c3ccccc3Cl)c(OC(c3cccnc3)C(F)(F)F)nc2c1 (stereo not shown) [Compound 262, 2-chloro-N-{6-methyl-3-[2,2,2-trifluoro-1-(pyridin-3-yl)-ethoxy]quinoxalin-2-yl}benzenesulfonamide] |
| < 1000 nM | O=S(=O)(Nc1nc2cc3ccccc3cc2nc1OC(c1cccnc1)C(F)(F)F)c1ccccc1Cl (stereo not shown) [Compound 263, 2-chloro-N-{3-[2,2,2-trifluoro-1-(pyridin-3-yl)ethoxy]-benzo[g]quinoxalin-2-yl}benzenesulfonamide] |
| < 1000 nM | O=S(=O)(Nc1nc2cc(Cl)c(Cl)cc2nc1OC(c1cccnc1)C(F)(F)F)c1ccccc1Cl (stereo not shown) [Compound 264, 2-chloro-N-{6,7-dichloro-3-[2,2,2-trifluoro-1-(pyridin-3-yl)ethoxy]quinoxalin-2-yl}benzenesulfonamide] |
| < 1000 nM | Cc1cccc2nc(OC(c3cccnc3)C(F)(F)F)c(NS(=O)(=O)c3ccccc3Cl)nc12 (stereo not shown) [Compound 265, 2-chloro-N-{8-methyl-3-[2,2,2-trifluoro-1-(pyridin-3-yl)-ethoxy]quinoxalin-2-yl}benzenesulfonamide] |
| < 1000 nM | Cc1cccc2nc(NS(=O)(=O)c3ccccc3Cl)c(OC(c3cccnc3)C(F)(F)F)nc12 (stereo not shown) [Compound 266, 2-chloro-N-{5-methyl-3-[2,2,2-trifluoro-1-(pyridin-3-yl)-ethoxy]quinoxalin-2-yl}benzenesulfonamide] |
| < 1000 nM | O=S(=O)(Nc1nc2ccccc2nc1OC(C1CCSCC1)C(F)(F)F)c1ccccc1Cl (stereo not shown) [Compound 267, 2-chloro-N-{3-[2,2,2-trifluoro-1-(tetrahydro-2H-thiopyran-4-yl)ethoxy]quinoxalin-2-yl}benzenesulfonamide] |
| < 1000 nM | CCOC(CCNS(=O)(=O)Nc1nc2ccccc2nc1OC(c1cccnc1)C(F)(F)F)OCC (stereo not shown) [Compound 272, N-{3-[2,2,2-trifluoro-1-(pyridin-3-yl)ethoxy]quinoxalin-2-yl}-N′-(3,3-diethoxypropyl)-sulfuric diamide] |
| 1000 to 10000 nM | O=CCCNS(=O)(=O)Nc1nc2ccccc2nc1OC(c1cccnc1)C(F)(F)F (stereo not shown) [Compound 273, N-{3-[2,2,2-trifluoro-1-(pyridin-3-yl)ethoxy]quinoxalin-2-yl}-N′-(3-oxopropyl)-sulfuric diamide] |
